Eleven compounds from ChEMBL document CHEMBL1201862, “PubChem BioAssay data set” (2004) can be followed below.

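These data come from cells grown in 96-well plates and exposed to compound for 48 hours at five concentrations. GI50 marks 50% less growth.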 The source made the active and inactive calls. Cut-off read from the data, not from the text of the source: active = GI50 up to about 1.1 µM and inactive = higher.

For orientation: GI50 means the concentration that inhibits growth by half.

Some test systems named below: A549; EKVX; HCT-116; HCT-15; HOP-62; HOP-92; HT-29; Hs-578T; LOX IMVI; NCI-H460; OVCAR-4; OVCAR-8; PC-3; RPMI-8226; SF-539; SK-MEL-28; SK-OV-3; SW-620; T47D.
Common to all, as to assay: DTP human tumour cell line panel, 48 h

As for `C/C(=N\Nc1ncnc2ccccc12)c1ccccn1`, the GI50 in the assay with A549 was 0.0316 µM (active); in the assay on EKVX, < 0.0169 µM (active); in the assay on HCT-116, < 0.011 µM (active); with HCT-15, < 0.0197 µM; in the assay on HOP-62 it was 0.0355 µM (active); in the assay on HOP-92, 0.25 µM (active). The GI50 is 0.0182 µM (active) with HT-29; 0.2 µM (active) in the assay on Hs-578T; 0.0194 µM (active) with LOX IMVI; 0.0294 µM (active) in the assay on NCI-H460; 10.7 µM (inactive) with OVCAR-4; < 0.01 µM (active) in the assay on OVCAR-8. Also, the GI50 was < 0.0226 µM (active) with PC-3; 0.019 µM (active) in the assay with RPMI-8226; 0.0279 µM (active) in the assay on SF-539; 0.369 µM (active) with SK-MEL-28; 0.0299 µM (active) in the assay on SK-OV-3; < 0.0267 µM (active) in the assay with SW-620. Further, the GI50 with T47D is < 0.0185 µM (active).
For the compound `Cc1c2ccc3ccccc3c2c[n+]2ccccc12`, the GI50 was 3.72 µM (inactive) with A549; 4.91 µM (inactive) in the assay on EKVX; 17.1 µM (inactive) in the assay with HCT-116; 59.2 µM in the assay with HCT-15; 7.93 µM (inactive) in the assay with HOP-62; 13.5 µM (inactive) in the assay on HOP-92. Besides, the GI50 in the assay with HT-29 is 27.5 µM (inactive); in the assay on Hs-578T, 2.26 µM (inactive); with LOX IMVI, 42.9 µM (inactive); in the assay with NCI-H460, 10.7 µM (inactive); in the assay with OVCAR-4, 12 µM (inactive); in the assay with OVCAR-8 it was 4.5 µM (inactive). For the same compound, the GI50 in the assay on PC-3 was 26.7 µM (inactive); with RPMI-8226 it was 19.5 µM (inactive); in the assay on SF-539 it was 8.41 µM (inactive); in the assay with SK-MEL-28, 9.55 µM (inactive); with SK-OV-3, 16.9 µM (inactive); in the assay on SW-620 it was 4.2 µM (inactive). Besides, the GI50 with T47D was 1.36 µM (inactive).
In the case of `c1ccc2c3ccn4ccc5c6ccccc6[nH]c5c4c-3nc2c1`, the GI50 is 0.745 µM (active) in the assay with A549; 1.02 µM (active) with EKVX; 0.306 µM (active) in the assay on HCT-116; 0.344 µM in the assay with HCT-15; 1.31 µM (inactive) with HOP-62; 1.43 µM (inactive) with HOP-92. Further, the GI50 in the assay on HT-29 was 0.391 µM (active); in the assay with Hs-578T it was 1.6 µM (inactive); with LOX IMVI, 0.202 µM (active); in the assay with NCI-H460, 0.498 µM (active); in the assay on OVCAR-4 it was 0.394 µM (active); with OVCAR-8, 0.246 µM (active). Further, the GI50 in the assay with PC-3 was 1.39 µM (inactive); in the assay with RPMI-8226, 0.255 µM (active); in the assay with SF-539 it was 1.55 µM (inactive); in the assay on SK-MEL-28 it was 1.7 µM (inactive); in the assay on SK-OV-3, 1.52 µM (inactive); with SW-620 it was 0.169 µM (active). Also, the GI50 in the assay on T47D was 1.15 µM (inactive).
For `Nc1ccccc1CCCC(=O)O`, the GI50 is > 100 µM (inactive) in the assay with A549; > 100 µM (inactive) in the assay with HCT-116; > 100 µM in the assay with HCT-15; > 100 µM (inactive) in the assay with HOP-62; > 100 µM (inactive) with HOP-92; > 100 µM (inactive) in the assay with HT-29. The GI50 in the assay on Hs-578T, in the assay on LOX IMVI, in the assay with NCI-H460, in the assay with OVCAR-4, in the assay with OVCAR-8 and with PC-3 was > 100 µM (inactive) throughout. The GI50 in the assay on RPMI-8226, in the assay with SF-539, in the assay with SK-MEL-28, in the assay on SK-OV-3, in the assay with SW-620 and in the assay on T47D was > 100 µM (inactive) throughout.
Consider `O=C(CSC1=NCCN1)c1ccccc1`, for which the GI50 with A549 was > 100 µM (inactive); in the assay on EKVX it was > 100 µM (inactive); with HCT-116, > 100 µM (inactive); with HCT-15, > 100 µM; in the assay on HOP-62 it was > 100 µM (inactive); in the assay with HOP-92 it was > 100 µM (inactive). Besides, the GI50 in the assay with HT-29, in the assay on Hs-578T, with LOX IMVI, in the assay with NCI-H460, in the assay with OVCAR-4 and with OVCAR-8 was > 100 µM (inactive) throughout. The GI50 in the assay on PC-3, in the assay on RPMI-8226, with SF-539, with SK-MEL-28, in the assay with SK-OV-3 and with SW-620 was > 100 µM (inactive) throughout. Further, in the assay with T47D, the GI50 was > 100 µM (inactive).
In the case of `Oc1c(Br)c(-c2ccccc2)nc2ccccc12`, the GI50 is 1.98 µM (inactive) with A549; 7.85 µM (inactive) in the assay on EKVX; 53.3 µM (inactive) in the assay with HCT-116; > 62.5 µM in the assay with HCT-15; > 62.1 µM (inactive) in the assay with HOP-62; 8 µM (inactive) with HOP-92. For the same compound, the GI50 was > 60.4 µM (inactive) with HT-29; > 89.1 µM (inactive) in the assay on Hs-578T; 64 µM (inactive) with LOX IMVI; 10 µM (inactive) in the assay with NCI-H460; 39.6 µM (inactive) in the assay with OVCAR-4; 9.38 µM (inactive) with PC-3. For the same compound, the GI50 in the assay on RPMI-8226 is 20.7 µM (inactive); in the assay with SF-539, 82.8 µM (inactive); in the assay with SK-MEL-28, 89.1 µM (inactive); in the assay on SK-OV-3 it was > 100 µM (inactive); in the assay with SW-620 it was 97.5 µM (inactive); with T47D it was 8.3 µM (inactive).
For `O=c1[nH]c2ccccc2c(=O)n1/N=C\c1ccccc1O`, the GI50 with A549 was > 100 µM (inactive); in the assay on EKVX, 22.8 µM (inactive); in the assay with HCT-116, > 100 µM (inactive); in the assay on HCT-15, > 100 µM; in the assay on HOP-62 it was > 100 µM (inactive); in the assay on HOP-92 it was 67 µM (inactive). Also, the GI50 was > 100 µM (inactive) in the assay with HT-29; 32.3 µM (inactive) with Hs-578T; > 100 µM (inactive) with LOX IMVI; > 100 µM (inactive) in the assay on NCI-H460; > 100 µM (inactive) in the assay on PC-3; > 100 µM (inactive) in the assay with RPMI-8226. Further, the GI50 in the assay on SF-539, with SK-MEL-28, in the assay on SK-OV-3, in the assay on SW-620 and with T47D was > 100 µM (inactive) throughout.
Turning to `Cc1ccc(C2=Nc3c(N)nc(N)nc3NC(c3ccccc3)C2)cc1` (stereo unspecified), the GI50 in the assay with A549 is 10.2 µM (inactive); in the assay on EKVX it was 12.4 µM (inactive); in the assay with HCT-116, 4.11 µM (inactive); in the assay on HCT-15, 3.1 µM; in the assay on HOP-62, 9.55 µM (inactive); in the assay on HOP-92, 11.7 µM (inactive). Moreover, the GI50 in the assay with HT-29 is 4.05 µM (inactive); with Hs-578T, 14 µM (inactive); in the assay with LOX IMVI it was 10.1 µM (inactive); in the assay with OVCAR-4, 14.2 µM (inactive); in the assay with OVCAR-8, 13.1 µM (inactive); with PC-3 it was 10.4 µM (inactive). Moreover, the GI50 was 4.84 µM (inactive) in the assay on RPMI-8226; 12 µM (inactive) in the assay on SF-539; 14.4 µM (inactive) with SK-MEL-28; 12.5 µM (inactive) in the assay with SK-OV-3; 4.02 µM (inactive) in the assay on SW-620; 13.1 µM (inactive) in the assay with T47D.
For the compound `CC(=O)OC1COC(Nc2nc(N)n(C)c(=O)c2N=O)C(OC(C)=O)C1OC(C)=O` (stereo unspecified), the GI50 in the assay with A549, in the assay with EKVX, in the assay with HCT-116, in the assay on HOP-62, with HOP-92 and in the assay on HT-29 was > 10 µM (inactive) in each case. The GI50 with Hs-578T, with LOX IMVI, in the assay with NCI-H460, with OVCAR-4, in the assay with OVCAR-8 and in the assay on PC-3 was > 10 µM (inactive) each time. The GI50 in the assay on RPMI-8226, in the assay on SF-539, with SK-MEL-28, in the assay on SK-OV-3, in the assay on SW-620 and in the assay on T47D was > 10 µM (inactive) each time.
For the compound `O=C(N/C=C1\C(=O)Oc2ccccc2C1=O)Oc1ccccc1`, the GI50 with A549 was 32.5 µM (inactive); in the assay on EKVX it was 27.7 µM (inactive); with HCT-116, 21.4 µM (inactive); with HCT-15 it was 23.7 µM; with HOP-62, 17.6 µM (inactive); with HOP-92, 22.1 µM (inactive). Besides, the GI50 with HT-29 is 40.8 µM (inactive); with Hs-578T it was 9.64 µM (inactive); with LOX IMVI, 25.1 µM (inactive); in the assay on NCI-H460, 33.9 µM (inactive); in the assay on OVCAR-4, 22.5 µM (inactive); in the assay with OVCAR-8, 25.8 µM (inactive). The GI50 in the assay on PC-3 is 29.5 µM (inactive); with RPMI-8226 it was 91.4 µM (inactive); in the assay on SF-539 it was 16 µM (inactive); with SK-OV-3 it was 6.27 µM (inactive); with SW-620, 30.8 µM (inactive); in the assay with T47D, 22.4 µM (inactive).
As for `CCOC(=O)CCC(C(=O)OCC)n1nnc2ccc(Nc3c(C)[n+]([O-])c4cc(F)c(OCC)cc4[n+]3[O-])cc21` (stereo unspecified), the GI50 in the assay with A549 is 77.8 µM (inactive); with EKVX it was 44.7 µM (inactive); in the assay on HCT-116, 64.3 µM (inactive); in the assay with HCT-15 it was 52.8 µM; in the assay with HOP-62 it was > 100 µM (inactive); in the assay with HOP-92 it was 24.6 µM (inactive). Also, the GI50 in the assay on HT-29 was 56.8 µM (inactive); in the assay on Hs-578T, > 100 µM (inactive); in the assay on LOX IMVI it was 32.7 µM (inactive); in the assay with NCI-H460, 60.3 µM (inactive); in the assay with OVCAR-4, 36.4 µM (inactive); in the assay on OVCAR-8, 94.4 µM (inactive). Moreover, the GI50 with PC-3 was > 100 µM (inactive); in the assay with RPMI-8226 it was 21.5 µM (inactive); in the assay with SF-539, 24.8 µM (inactive); in the assay on SK-OV-3 it was > 100 µM (inactive); with SW-620, > 100 µM (inactive); with T47D, 30.2 µM (inactive).
